# Experimental data reported in ChEMBL document CHEMBL1201862, “PubChem BioAssay data set” (2004).
# The source made the active and inactive calls.
# Columns and labels:
# [1] = biological target: T1, DNA repair and recombination protein RAD54-like (Homo sapiens, UniProt Q92698); experiment: RAD54 Holliday junction migration blockers – biochemical, fluorescence, cherry-picked samples, dose series, confirmation (AID 651657); type: functional
# T1 sequence (Q92698 whole entry): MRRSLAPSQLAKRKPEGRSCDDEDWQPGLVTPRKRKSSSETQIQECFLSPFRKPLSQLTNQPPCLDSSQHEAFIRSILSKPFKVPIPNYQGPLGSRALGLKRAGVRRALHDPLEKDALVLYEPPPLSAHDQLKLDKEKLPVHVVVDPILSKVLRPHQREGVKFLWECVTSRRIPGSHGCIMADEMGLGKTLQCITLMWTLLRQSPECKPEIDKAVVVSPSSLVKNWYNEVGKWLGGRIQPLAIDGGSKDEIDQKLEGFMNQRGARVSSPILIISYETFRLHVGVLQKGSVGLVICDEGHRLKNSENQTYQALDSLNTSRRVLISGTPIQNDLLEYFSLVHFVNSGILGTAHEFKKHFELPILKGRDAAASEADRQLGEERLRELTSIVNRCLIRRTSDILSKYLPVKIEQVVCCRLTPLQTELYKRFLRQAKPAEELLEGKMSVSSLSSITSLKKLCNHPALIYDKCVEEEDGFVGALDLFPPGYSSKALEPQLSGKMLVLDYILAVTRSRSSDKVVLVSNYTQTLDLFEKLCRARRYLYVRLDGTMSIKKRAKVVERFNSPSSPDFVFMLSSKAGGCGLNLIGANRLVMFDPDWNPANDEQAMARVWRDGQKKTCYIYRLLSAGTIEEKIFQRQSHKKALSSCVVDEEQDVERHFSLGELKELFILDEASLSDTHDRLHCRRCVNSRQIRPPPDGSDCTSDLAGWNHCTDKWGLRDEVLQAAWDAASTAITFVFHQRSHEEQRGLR
# [2] = biological target: T2, Fructose-bisphosphate aldolase (Mycobacterium tuberculosis, UniProt P9WQA3); experiment: Fluorescence-based biochemical high throughput dose response assay for inhibitors of the fructose-bisphosphate aldolase (FBA) of M. tuberculosis.; type: functional
# T2 sequence (P9WQA3 whole entry): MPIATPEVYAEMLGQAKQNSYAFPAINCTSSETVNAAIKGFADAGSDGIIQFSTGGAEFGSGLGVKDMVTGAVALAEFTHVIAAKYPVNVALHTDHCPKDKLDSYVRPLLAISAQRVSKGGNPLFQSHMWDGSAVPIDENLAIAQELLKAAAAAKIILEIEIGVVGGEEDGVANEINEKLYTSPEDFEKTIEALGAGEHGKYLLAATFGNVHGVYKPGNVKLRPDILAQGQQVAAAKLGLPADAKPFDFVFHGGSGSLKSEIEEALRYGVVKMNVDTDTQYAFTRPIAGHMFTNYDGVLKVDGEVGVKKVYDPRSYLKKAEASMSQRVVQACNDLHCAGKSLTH
# [3] = luciferase reporter signal suppression in cells – H4 neuroglioma cells, luminescence, dose response (AID 1990); type: functional, cell-based
# [4] = test system: Streptococcus sp. 'group A'; experiment: Streptococcus pyogenes SK(-)GAS viability under kanamycin – luminescence, BacTiterGlo, confirmation, counter-screen for streptokinase expression inhibitor project, dose response (AID 1900); type: functional, organism-based
# [5] = Luminescence Cell-Based Dose Response HTS to Identify Inhibitors of 5'UTR Stem-Loop Driven Prion Protein mRNA Translation in H4 Neuroglioblastoma Cells. [Related pubchem assays: 1827 (Project Summary), 1813 (Primary HTS)]; type: functional
# [6] = alpha-synuclein stem-loop luciferase translation blockers – H4 neuroglioma cells, luminescence, confirmation (AID 1988); type: functional, cell-based
# [7] = Trypanosoma cruzi growth suppression in host cells – NIH3T3 host cells, beta-gal luminescence, confirmation (AID 2044); type: functional, cell-based;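 further: intracellular parasites grown in NIH/3T3 mouse fibroblasts as host cells; luminescent beta-galactosidase reporter signal from transgenic T. cruzi replicating inside host cells; inhibitors lower the luminescence signal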
# [8] = NIH3T3 cell viability loss – ATP luminescence, mouse fibroblasts, counter-screen, dose response (AID 2010); type: functional, cell-based;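 further: cells exposed to compound for about 90 hours before reading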
# Streptococcus = experiment: GAS UMAA2166 growth inhibition – luminescence, BacTiterGlo, counter-screen for streptokinase expression inhibitor project, dose response (AID 1915); type: functional, organism-based;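 further: potency for reduction of bacterial viability or growth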
# INS1 = experiment: INS-1E survival protection against cytokine death – cell-based, luminescence, retest, dose response (AID 449756); type: functional; settings: ins1;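 further: cell death triggered by IL-1 beta plus TNF-alpha plus IFN-gamma mixture; protective hits raise ATP signal compared with cytokine alone wells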
# [9] = cAMP pathway inhibition in counterscreen cell line – TR-FRET cAMP detection, counter-screen for MC4R biased antagonist project, dose response (AID 602305); type: functional, cell-based;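 further: U2OS cells stimulated with forskolin near its EC80 as the cAMP inducer; potency is for inhibition of forskolin-stimulated cAMP signaling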
# [10] = viability loss in HeLa cells – cytotoxicity control for MgcRacGAP inhibitor project, dose response (AID 624300); type: functional
# [11] = biological target: T3, Corticotropin-releasing factor receptor 2/Corticotropin-releasing factor-binding protein (Homo sapiens, UniProt P24387+Q13324); experiment: activators of CRF receptor 2 with binding protein – uHTS hits, confirmation (AID 602473); type: functional; settings: read-out: EC50_Mean
# T3 sequence (Q13324 whole entry): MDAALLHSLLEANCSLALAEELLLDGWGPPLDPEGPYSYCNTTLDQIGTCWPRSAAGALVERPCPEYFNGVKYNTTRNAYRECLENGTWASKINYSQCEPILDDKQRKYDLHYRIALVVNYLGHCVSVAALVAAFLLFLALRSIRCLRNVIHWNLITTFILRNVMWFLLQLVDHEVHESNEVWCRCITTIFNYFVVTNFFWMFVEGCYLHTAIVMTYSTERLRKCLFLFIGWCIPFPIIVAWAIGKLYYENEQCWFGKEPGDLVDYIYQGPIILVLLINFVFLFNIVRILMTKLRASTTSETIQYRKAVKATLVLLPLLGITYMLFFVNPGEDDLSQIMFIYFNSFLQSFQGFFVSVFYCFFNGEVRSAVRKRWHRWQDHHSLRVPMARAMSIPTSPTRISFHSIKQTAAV
# T3 sequence (P24387 whole entry): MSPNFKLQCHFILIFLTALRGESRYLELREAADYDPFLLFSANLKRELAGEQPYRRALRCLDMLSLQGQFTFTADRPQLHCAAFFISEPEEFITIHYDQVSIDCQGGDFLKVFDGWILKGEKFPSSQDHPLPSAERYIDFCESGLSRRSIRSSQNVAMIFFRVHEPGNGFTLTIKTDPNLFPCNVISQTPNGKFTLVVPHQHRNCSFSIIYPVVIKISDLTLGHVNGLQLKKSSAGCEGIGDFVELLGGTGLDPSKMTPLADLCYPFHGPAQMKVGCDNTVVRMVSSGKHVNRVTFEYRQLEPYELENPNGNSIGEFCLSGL
# [12] = HGIII-sPLA2 enzyme inhibition potency – biochemical, QFRET, IC50, dose response (AID 743457);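 further: green fluorescence rise as the enzyme cleaves BODIPY PC-A2 in liposomes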
# Paired box protein Pax-8 = Paired box protein Pax-8 (Homo sapiens, UniProt Q06710); experiment: PAX8 transcriptional activity inhibition in RMG-I – RMG-I cells, luciferase, cherry-pick, dose response (AID 687027); type: functional, cell-based;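 further: luciferase reporter driven by Pax8 target thyroperoxidase promoter measured by SteadyGlo luminescence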
# [13] = IGROV1 cell killing – plate reader, dry powder samples, PAX8 inhibitor project, dose response (AID 743043); type: functional, cell-based; settings: IGROV-1
# Chain of Paired box protein Pax-8 (Q06710 whole entry): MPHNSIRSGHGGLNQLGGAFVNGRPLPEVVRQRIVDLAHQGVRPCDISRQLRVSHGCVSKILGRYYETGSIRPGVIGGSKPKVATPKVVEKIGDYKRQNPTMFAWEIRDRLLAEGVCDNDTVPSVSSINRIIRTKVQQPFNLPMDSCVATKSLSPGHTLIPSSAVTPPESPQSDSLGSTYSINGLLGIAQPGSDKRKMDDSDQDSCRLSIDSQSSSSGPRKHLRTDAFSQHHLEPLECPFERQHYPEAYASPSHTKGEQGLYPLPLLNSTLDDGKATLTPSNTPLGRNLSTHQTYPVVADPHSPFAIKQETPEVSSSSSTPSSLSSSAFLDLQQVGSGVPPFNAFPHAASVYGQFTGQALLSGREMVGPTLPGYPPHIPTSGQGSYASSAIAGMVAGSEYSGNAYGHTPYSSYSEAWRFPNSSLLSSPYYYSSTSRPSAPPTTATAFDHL
smiles,measurement,setting,value
CC1CCN(CCCNC(=O)c2cc3c(=O)n(C)c4ccccc4c3n2C)CC1,AC50,[1],27.8 µM (active)
CCCCN=C(S)N(CCN(CC)CC)Cc1cc2cc3c(cc2nc1O)OCO3,IC50,[2],2.44 µM (active)
N=C(NCCCCCCNC(=N)NC(=N)Nc1ccc(Cl)cc1)NC(=N)Nc1ccc(Cl)cc1,EC50,[3],8.64 µM (active)
same,EC50,[4],0.517 µM (active)
same,EC50,[5],18.2 µM (active)
same,EC50,[6],9.88 µM (active)
same,EC50,[7],0.332 µM (active)
same,EC50,[8],7.82 µM (active)
same,EC50,Streptococcus,2.09 µM (active)
same,AC50,INS1,4.27 µM (active)
same,IC50,[9],61.2 µM (inactive)
same,CC50,[10],37.9 µM (active)
Cc1nnsc1-c1nc2ccccc2[nH]1,IC50,[2],1.4 µM (active)
Cn1c(-c2cccs2)nc2ccccc21,IC50,[2],1.48 µM (active)
Cc1nc2ccccc2c2oc(C(=O)NCCN3CCCCC3C)cc12 (stereo not given),AC50,[1],35.2 µM (active)
CC(C)CC(=O)NC(=S)NNC(=O)c1cccc([N+](=O)[O-])c1,EC50,[11],> 53 µM (inactive)
same,IC50,[12],> 122 µM (inactive)
CC(C)(CNC(=O)c1cc(-c2ccc(Cl)s2)nc2ccccc12)N1CCOCC1,IC50,[2],1.59 µM (active)
C[C@H](O)C#Cc1cnc2c(c1)C(=O)N([C@H](C)CO)C[C@@H](C)[C@@H](CN(C)Cc1ccc(-c3ccccc3)cc1)O2,AC50,Paired box protein Pax-8,1.66 µM (active)
same,AC50,[13],25.6 µM (active)
